Measurements as given in ChEMBL document CHEMBL1201862, “PubChem BioAssay data set” (2004).
Activity calls are given as the source filed them.

Assays:
[1] = target: T1, RNA-binding protein pos-1 (Caenorhabditis elegans, UniProt G5EF15); experiment: inhibitors of POS-1/mex-3 RNA binding, dose response, biochemical, fluorescence polarization (AID 1964);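 further: purified POS-1 fused to maltose binding protein made in E. coli; potency of compounds blocking POS-1 binding to fluorescent RNA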
T1 sequence (G5EF15 whole entry): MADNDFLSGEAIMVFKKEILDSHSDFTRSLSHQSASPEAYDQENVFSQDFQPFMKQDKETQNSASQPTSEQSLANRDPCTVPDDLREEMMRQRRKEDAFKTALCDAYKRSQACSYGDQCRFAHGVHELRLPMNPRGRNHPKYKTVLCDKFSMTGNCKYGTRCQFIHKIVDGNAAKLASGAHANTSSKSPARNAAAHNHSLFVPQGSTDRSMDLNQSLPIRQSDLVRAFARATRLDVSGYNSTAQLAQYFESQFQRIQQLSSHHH

[2] = target: T2, Zinc finger protein mex-5 (Caenorhabditis elegans, UniProt Q9XUB2); experiment: MEX-5/TCR-2 RNA interaction inhibitors, dose response, biochemical, C. elegans, fluorescence polarization (AID 1960)
T2 sequence (Q9XUB2 whole entry): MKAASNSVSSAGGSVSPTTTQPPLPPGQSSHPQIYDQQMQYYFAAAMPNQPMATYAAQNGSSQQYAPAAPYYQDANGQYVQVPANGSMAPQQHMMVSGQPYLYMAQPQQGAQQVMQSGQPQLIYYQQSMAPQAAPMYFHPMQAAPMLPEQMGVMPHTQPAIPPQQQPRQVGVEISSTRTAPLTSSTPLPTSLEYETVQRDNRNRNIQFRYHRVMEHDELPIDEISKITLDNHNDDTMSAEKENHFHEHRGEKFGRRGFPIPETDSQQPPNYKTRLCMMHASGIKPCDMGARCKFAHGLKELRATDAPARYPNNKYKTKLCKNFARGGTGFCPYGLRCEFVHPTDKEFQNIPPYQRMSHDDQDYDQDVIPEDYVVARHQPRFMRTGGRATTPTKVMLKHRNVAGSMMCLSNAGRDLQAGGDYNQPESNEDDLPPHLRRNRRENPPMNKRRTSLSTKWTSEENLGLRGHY

[3] = AlphaScreen signal interference compounds, dose response, artefact control for ARNT-TACC3 interaction inhibitor project, biochemical, luminescence, cherry-pick (AID 651705); format: functional;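 further: AlphaScreen bead proximity signal that flags compounds interfering with the detection technology; potency reflects signal decrease which marks the compound as an assay artifact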
[4] = target: 26S proteasome non-ATPase regulatory subunit 14 (Homo sapiens, UniProt O00487); experiment: inhibition of proteasome subunit RPN11 – biochemical, fluorescence polarization, uHTS hits, confirmation (AID 602368); format: functional
Chain of 26S proteasome non-ATPase regulatory subunit 14 (O00487 whole entry): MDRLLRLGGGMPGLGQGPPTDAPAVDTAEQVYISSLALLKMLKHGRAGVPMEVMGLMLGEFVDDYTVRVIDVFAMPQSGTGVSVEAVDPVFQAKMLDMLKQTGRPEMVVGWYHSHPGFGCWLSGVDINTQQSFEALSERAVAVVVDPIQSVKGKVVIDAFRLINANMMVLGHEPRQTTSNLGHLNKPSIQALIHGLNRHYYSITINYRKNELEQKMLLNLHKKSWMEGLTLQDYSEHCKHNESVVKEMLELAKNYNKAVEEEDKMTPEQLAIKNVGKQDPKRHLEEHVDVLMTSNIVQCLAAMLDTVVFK

[5] = target: 72 kDa type IV collagenase (Homo sapiens, UniProt P08253); experiment: Dose Response validation of uHTS RPN11 inhibitor hits using a MMP-2 Fluorescence assay.; format: functional
Chain of 72 kDa type IV collagenase (P08253 whole entry): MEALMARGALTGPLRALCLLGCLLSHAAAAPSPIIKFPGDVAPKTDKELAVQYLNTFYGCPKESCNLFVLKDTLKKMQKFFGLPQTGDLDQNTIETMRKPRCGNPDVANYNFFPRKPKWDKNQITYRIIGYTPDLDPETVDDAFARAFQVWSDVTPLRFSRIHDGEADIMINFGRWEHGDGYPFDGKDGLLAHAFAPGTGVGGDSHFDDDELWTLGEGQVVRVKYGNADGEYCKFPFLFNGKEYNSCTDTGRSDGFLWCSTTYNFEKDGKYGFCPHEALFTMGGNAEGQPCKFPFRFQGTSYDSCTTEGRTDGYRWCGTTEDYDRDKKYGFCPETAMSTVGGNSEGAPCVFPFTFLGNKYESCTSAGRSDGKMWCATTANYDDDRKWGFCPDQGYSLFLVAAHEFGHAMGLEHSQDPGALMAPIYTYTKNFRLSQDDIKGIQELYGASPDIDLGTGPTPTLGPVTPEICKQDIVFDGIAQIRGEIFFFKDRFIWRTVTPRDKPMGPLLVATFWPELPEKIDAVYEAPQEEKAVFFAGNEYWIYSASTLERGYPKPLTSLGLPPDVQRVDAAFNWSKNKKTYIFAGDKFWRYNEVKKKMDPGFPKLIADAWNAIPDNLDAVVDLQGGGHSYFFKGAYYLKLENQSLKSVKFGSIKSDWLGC

Prothrombin = Prothrombin (Bos taurus, UniProt P00735); experiment: thrombin inhibition, dose response, biochemical, fluorescence polarization, uHTS hits (AID 602369); format: functional
[6] = target: Ras and Rab interactor 1/Tyrosine-protein kinase ABL1 (Homo sapiens, UniProt P00519+Q13671); format: functional;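 further: biochemical TR-FRET dose-response test measuring inhibition of binding between Rin1 and Abl proteins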
Chain of Ras and Rab interactor 1/Tyrosine-protein kinase ABL1 (P00519 whole entry): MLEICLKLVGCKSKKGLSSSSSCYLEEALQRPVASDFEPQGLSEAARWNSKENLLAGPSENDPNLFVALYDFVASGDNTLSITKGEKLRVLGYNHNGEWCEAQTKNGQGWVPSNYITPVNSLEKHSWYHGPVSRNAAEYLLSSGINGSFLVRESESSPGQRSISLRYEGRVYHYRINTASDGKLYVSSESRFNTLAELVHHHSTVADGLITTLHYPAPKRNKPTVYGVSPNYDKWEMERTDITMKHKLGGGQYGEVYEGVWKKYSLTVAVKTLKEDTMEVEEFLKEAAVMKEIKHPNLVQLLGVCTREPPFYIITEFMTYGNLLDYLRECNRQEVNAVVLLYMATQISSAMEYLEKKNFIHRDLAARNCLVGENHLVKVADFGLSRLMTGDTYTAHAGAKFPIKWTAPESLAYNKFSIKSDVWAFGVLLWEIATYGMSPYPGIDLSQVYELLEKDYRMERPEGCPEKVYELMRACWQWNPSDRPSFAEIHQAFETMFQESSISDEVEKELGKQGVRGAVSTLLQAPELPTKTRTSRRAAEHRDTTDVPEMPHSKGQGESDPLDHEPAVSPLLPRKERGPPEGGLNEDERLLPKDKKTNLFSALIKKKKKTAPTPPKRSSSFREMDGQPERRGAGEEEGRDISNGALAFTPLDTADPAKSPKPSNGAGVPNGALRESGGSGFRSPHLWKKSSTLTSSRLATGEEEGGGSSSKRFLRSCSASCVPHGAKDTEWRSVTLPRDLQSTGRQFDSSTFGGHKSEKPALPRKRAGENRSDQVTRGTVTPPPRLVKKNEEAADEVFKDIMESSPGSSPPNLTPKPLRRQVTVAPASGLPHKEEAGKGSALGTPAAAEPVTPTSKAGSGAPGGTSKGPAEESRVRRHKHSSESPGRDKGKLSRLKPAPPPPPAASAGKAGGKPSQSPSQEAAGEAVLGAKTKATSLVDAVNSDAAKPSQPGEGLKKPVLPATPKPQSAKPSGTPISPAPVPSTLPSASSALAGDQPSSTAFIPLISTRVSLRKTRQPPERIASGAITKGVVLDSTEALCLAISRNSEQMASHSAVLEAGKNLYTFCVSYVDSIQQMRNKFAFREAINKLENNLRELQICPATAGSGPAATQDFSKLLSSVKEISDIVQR
Chain of Ras and Rab interactor 1/Tyrosine-protein kinase ABL1 (Q13671 whole entry): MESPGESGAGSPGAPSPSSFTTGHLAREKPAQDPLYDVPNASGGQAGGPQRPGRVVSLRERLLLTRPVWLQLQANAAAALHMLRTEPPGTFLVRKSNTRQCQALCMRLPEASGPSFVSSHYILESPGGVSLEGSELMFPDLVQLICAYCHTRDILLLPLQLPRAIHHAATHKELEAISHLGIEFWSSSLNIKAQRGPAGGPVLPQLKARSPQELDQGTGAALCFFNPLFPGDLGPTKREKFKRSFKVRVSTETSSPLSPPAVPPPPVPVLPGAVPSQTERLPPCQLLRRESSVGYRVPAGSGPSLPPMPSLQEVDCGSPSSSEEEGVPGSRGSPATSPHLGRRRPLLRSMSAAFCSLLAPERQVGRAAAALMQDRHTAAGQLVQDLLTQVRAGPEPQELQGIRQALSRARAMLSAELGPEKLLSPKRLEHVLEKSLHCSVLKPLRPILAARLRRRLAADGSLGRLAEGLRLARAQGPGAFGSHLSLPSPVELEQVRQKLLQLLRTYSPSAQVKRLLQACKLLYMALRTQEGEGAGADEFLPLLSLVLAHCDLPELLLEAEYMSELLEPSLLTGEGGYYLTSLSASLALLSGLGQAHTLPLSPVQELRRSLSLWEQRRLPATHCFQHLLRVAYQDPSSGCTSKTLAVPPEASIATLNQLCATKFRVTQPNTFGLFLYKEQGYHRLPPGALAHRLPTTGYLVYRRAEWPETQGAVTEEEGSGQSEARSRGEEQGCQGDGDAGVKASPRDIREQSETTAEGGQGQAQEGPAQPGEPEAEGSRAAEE

Escherichia coli = experiment: microbe, parasite or virus in culture
[7] = target: T3, Corticotropin-releasing factor receptor 2/Corticotropin-releasing factor-binding protein (Homo sapiens, UniProt P24387+Q13324); experiment: Dose Response confirmation of uHTS hits for small molecule antagonists of the CRF-binding protein and CRF-R2 receptor complex.; format: functional; conditions: read-out: IC50_Mean
T3 sequence (Q13324 whole entry): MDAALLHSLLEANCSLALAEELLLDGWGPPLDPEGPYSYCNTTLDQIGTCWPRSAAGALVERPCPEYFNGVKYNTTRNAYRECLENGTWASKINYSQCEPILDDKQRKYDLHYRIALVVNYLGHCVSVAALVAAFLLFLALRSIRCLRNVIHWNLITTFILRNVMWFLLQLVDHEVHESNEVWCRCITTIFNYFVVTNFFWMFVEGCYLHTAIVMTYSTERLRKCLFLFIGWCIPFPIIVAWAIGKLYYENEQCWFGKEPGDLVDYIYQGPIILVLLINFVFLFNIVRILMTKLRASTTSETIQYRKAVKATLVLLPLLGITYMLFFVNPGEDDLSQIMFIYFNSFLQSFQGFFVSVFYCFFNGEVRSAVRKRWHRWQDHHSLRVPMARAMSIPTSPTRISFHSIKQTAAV
T3 sequence (P24387 whole entry): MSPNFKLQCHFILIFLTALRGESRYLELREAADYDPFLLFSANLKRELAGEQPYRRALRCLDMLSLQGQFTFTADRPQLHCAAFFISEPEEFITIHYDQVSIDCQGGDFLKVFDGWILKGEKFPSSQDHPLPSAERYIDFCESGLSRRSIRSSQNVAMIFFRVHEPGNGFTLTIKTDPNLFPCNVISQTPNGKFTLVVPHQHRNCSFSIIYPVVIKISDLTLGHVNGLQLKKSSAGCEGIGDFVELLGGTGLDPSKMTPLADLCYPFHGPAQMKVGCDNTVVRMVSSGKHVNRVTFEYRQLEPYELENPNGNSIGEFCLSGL

[8] = target: T3, Corticotropin-releasing factor receptor 2/Corticotropin-releasing factor-binding protein; experiment: activators of CRF receptor 2 with binding protein – uHTS hits, confirmation (AID 602473); format: functional; conditions: read-out: EC50_Mean
[9] = CRF-BP/CRF-R2 complex antagonists, dose response, cell-based, uHTS hits, 384-well (AID 651639); format: functional, Homo sapiens; conditions: read-out: IC50_Mean
[10] = target: T4, Hepatocyte nuclear factor 4-alpha (Homo sapiens, UniProt P41235); format: functional, cell-based;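 further: biochemical luminescence-based dose-response counterscreen measuring inhibition of HNF4 dimerization, run alongside a screen for blockers of ABHD5–perilipin-5 interaction; split luciferase complementation of HNF4 fusion proteins in cell lysate measuring dimerization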
T4 sequence (P41235 whole entry): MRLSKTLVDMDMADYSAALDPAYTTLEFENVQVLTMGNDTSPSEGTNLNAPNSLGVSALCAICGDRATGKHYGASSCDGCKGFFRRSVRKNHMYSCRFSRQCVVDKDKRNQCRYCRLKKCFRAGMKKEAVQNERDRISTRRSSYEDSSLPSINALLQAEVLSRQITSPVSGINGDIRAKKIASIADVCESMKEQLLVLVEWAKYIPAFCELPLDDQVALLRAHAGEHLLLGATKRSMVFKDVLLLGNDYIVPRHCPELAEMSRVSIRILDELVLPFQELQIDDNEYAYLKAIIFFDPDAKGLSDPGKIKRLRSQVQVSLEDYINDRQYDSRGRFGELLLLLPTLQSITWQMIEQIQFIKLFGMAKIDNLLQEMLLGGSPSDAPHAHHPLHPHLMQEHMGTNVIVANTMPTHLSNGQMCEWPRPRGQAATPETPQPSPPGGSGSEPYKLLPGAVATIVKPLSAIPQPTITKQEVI

Bcl-2-related protein A1 = target: T5, Bcl-2-related protein A1 (Mus musculus, UniProt Q07440); format: functional;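 further: confirmatory dose–response counterscreen on Bfl-1, used to check hits from a UBC13 polyubiquitin inhibitor campaign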
T5 sequence (Q07440 whole entry): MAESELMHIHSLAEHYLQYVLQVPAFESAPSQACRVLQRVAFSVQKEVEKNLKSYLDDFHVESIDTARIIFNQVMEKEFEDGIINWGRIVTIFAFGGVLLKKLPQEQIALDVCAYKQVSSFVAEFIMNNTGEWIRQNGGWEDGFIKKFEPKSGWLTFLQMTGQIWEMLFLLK

[11] = target: T6, Ubiquitin-conjugating enzyme E2 N (Homo sapiens, UniProt P61088); format: functional
T6 sequence (P61088 whole entry): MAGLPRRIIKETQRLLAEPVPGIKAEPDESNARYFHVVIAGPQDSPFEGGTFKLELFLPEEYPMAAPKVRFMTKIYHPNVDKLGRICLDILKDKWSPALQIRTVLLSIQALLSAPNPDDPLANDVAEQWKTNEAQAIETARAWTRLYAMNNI

[12] = target: T6, Ubiquitin-conjugating enzyme E2 N; format: functional; remark: listed apart in the source
[13] = target: T7, Rac GTPase-activating protein 1 (Homo sapiens, UniProt Q9H0H5); experiment: MgcRacGAP GTPase-activating activity inhibitors, confirmation, biochemical, ADP Hunter fluorescence, primary and confirmatory (AID 624330); format: functional
T7 sequence (Q9H0H5 whole entry): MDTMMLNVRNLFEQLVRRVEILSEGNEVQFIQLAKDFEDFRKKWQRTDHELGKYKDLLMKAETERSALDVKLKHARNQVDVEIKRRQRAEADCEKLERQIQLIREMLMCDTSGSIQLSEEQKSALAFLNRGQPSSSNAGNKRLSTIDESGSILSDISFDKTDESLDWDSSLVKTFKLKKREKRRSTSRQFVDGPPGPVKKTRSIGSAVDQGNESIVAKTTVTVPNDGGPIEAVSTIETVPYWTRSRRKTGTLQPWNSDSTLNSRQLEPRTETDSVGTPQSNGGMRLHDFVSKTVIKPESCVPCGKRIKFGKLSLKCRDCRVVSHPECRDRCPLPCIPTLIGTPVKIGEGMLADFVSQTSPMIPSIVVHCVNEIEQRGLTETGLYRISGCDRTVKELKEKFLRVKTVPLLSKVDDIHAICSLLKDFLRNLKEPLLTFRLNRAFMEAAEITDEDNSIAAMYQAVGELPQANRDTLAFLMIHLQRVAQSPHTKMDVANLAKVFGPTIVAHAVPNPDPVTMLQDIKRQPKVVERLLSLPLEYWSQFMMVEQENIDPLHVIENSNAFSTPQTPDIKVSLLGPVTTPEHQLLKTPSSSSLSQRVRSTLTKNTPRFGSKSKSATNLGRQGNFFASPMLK

Cytochrome P450 1A2 = target: T8, Cytochrome P450 1A2 (Homo sapiens, UniProt P05177);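 further: PubChem cytochrome P450 panel assay, CYP1A2 panel member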
T8 sequence (P05177 whole entry): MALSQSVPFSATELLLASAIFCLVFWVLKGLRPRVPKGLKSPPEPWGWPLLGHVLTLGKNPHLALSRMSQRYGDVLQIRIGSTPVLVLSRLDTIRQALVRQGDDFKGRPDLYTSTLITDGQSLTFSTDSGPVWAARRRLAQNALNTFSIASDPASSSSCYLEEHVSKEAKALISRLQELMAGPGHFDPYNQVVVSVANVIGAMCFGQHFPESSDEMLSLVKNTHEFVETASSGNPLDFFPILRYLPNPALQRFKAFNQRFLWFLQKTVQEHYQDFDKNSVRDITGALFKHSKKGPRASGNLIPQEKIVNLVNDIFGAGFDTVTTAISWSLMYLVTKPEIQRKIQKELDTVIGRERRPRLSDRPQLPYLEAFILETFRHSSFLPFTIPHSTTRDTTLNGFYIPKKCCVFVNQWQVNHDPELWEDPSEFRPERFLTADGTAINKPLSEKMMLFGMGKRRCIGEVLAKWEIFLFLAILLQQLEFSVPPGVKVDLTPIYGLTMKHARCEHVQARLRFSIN

Cytochrome P450 2C9 = Cytochrome P450 2C9 (Homo sapiens, UniProt P11712)
Chain of Cytochrome P450 2C9 (P11712 whole entry): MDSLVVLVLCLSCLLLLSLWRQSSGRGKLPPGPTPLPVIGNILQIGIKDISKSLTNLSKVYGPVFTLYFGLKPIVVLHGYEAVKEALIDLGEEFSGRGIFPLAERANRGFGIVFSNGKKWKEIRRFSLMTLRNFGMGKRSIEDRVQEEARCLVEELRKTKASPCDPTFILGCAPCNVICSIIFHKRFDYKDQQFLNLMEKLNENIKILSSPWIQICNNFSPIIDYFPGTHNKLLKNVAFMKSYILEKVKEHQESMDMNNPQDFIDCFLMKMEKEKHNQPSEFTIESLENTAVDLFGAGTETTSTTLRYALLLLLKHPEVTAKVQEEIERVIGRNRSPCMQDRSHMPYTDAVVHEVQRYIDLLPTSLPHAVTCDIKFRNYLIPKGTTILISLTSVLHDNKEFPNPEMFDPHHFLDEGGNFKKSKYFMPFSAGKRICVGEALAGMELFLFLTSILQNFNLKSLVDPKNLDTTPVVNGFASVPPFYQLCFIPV

[14] = HEp-2 cell cytotoxicity, dose response, cytotoxicity control for RSV inhibitor project, HTS (AID 2410); format: functional; conditions: human respiratory syncytial virus

O=C(NNc1ccccn1)C(=O)NNS(=O)(=O)c1ccc(F)cc1
EC50 [1]: > 300 µM (not active)
EC50 [2]: > 300 µM (inconclusive)
AC50 [3]: 122 µM (active)

CCc1ccc(OCC(=O)NNC(=O)c2cc(S(=O)(=O)N(C)C)ccc2N2CCCC2)cc1
IC50 [4]: 47 µM (active)
IC50 [5]: 23.6 µM (active)
IC50 (Prothrombin): > 100 µM (inactive)

Oc1nc2ccccc2n1C1CCN(C(c2nnnn2-c2ccc3c(c2)OCCO3)C2CC2)CC1 (centres undefined)
IC50 [6]: 40.9 µM (inactive)

OC1(c2ccccc2Cl)NN=C2CCCCCN21 (centres undefined)
AC50 (Escherichia coli): 26 µM (active)

CC(C)(C)OC(=O)N1CCC(c2cc(O)n3ncc(C(=O)NC4CCCC4)c3n2)CC1
IC50 [7]: 6.5 µM (active)
EC50 [8]: > 53 µM (inactive)
IC50 [9]: 9.87 µM (active)

CN(C)c1nc(SCC#N)nc(N2CCOCC2)n1
AC50 (Escherichia coli): 66.1 µM (active)

Cc1cccc(C)c1NC(=O)C(c1ccc(C(F)(F)F)cc1)n1c(=O)c(-c2ccco2)nc2ccccc21 (centres undefined)
IC50 [10]: 2.56 µM (active)

COC(=O)c1sc(-c2ccc(C(C)(C)C)cc2)cc1NC(=O)COCC(=O)O
IC50 [7]: 11 µM (active)
EC50 [8]: > 53 µM (inactive)
IC50 [9]: > 20 µM (inactive)

O=S(=O)(N[C@@H]1CC[C@H](CCn2cc(-c3ccccn3)nn2)O[C@@H]1CO)c1cccc(F)c1
AC50 [3]: 79.4 µM (active)

C#CCOCCOCCOCCNc1nc(N2CCN(C(=O)[C@H](CCCCN)n3cc(CN)nn3)CC2)nc(N2CCN(C(=O)[C@H](CCCCN)n3cc(CN)nn3)CC2)n1
IC50 (Bcl-2-related protein A1): > 20 µM (inactive)
IC50 [11]: 5.36 µM (active)
IC50 [12]: 5.15 µM (active)
IC50 [13]: 203 µM (active)

O=C(N[C@@H]1CC[C@@H](CCn2cc(-c3ccccn3)nn2)O[C@H]1CO)c1ccncc1
AC50 [3]: 72.8 µM (active)

COc1cccc(CN2CCN(Cc3cc(OC)c(OC)cc3[N+](=O)[O-])CC2)c1.O=C(O)C(=O)O
IC50 [7]: > 47.1 µM (inactive)
EC50 [8]: > 53 µM (inactive)
IC50 [13]: 56.8 µM (active)
AC50 (Cytochrome P450 1A2): 14.1 µM (inconclusive)
AC50 (Cytochrome P450 2C9): inconclusive
AC50 (Escherichia coli): > 150 µM (inactive)

COc1ccc(OCc2cn(CC(=O)c3ccc(O)cc3)nn2)cc1
IC50 [10]: 6 µM (active)

C=Cc1ccc(Cn2c(C(=O)O)c(C=O)c3ccccc32)cc1
IC50 [4]: 12.6 µM (active)
IC50 [5]: > 100 µM (inactive)
IC50 (Prothrombin): 39.1 µM (active)

Cc1nc(Nc2cccc(O)c2)c2c3c(sc2n1)CCC3
CC50 [14]: 12.7 µM (active)
IC50 [6]: > 73.5 µM (inactive)
